Patent publication US11363816B2, “4-amino-6-(heterocyclic)picolinates and 6-amino-2-(heterocyclic)pyramidine-4-carboxylates and their use as herbicides” (Dow AgroSciences LLC, priority 2017, dated 2022)

Legend:
Format in all cases: in vivo
[1] = system: CHEAL=Chenopodium album L. (common lambsquarters); experiment: Postemergent herbicidal activity in the greenhouse; settings: 21-28 DAAA
Method: (§1) Seeds of the desired test plant species were planted in Sun Gro MetroMix® 306 planting mixture, which typically has a pH of 6.0 to 6.8 and an organic matter content of about 30 percent, in plastic pots with a surface area of 103.2 square centimeters (cm^2). When required to ensure good germination and healthy plants, a fungicide treatment and/or other chemical or physical treatment was applied. The plants were grown for 7-36 days (d) in a greenhouse with an approximate 14 hour (h) photoperiod which was maintained at about 18° C. during the day and 17° C. during the night. Nutrients and water were added on a regular basis and supplemental lighting was provided with overhead metal halide 1000-Watt lamps as necessary. The plants were employed for testing when they reached the second or third true leaf stage.
(§2) An aliquot of formulated Compound 5 (100 grams acid equivalent per liter (g ae/L); emusifiable concentrate (EC)), Compound 6 (100 g ae/L; EC) or Compound 7 (100 g ae/L; EC) was placed in a 25 mL glass vial and diluted in a volume of 1.25% (volume per volume (v/v)) aqueous Actirob B esterified rapeseed oil to obtain a stock solution. The concentrated stock solutions were diluted with an aqueous mixture of 1.25% v/v of aqueous Actirob B esterified rapeseed oil to provide the appropriate application rates. Compound requirements are based upon a 12 mL application volume at a rate of 187 liters per hectare (L/ha). Formulated compounds were applied to the plant material with an overhead Mandel track sprayer equipped with 8002E nozzles calibrated to deliver 187 L/ha over an application area of 0.503 square meters (m^2) at a spray height of 18 inches ([…]) above average plant canopy. Control plants were sprayed in the same manner with the solvent blank.
(§3) The treated plants and control plants were placed in a greenhouse as described above and watered by subirrigation to prevent washoff of the test compounds. After 20-22 d, the condition of the test plants as compared with that of the control plants was determined visually and scored on a scale of 0 to 100 percent where 0 corresponds to no injury and 100 corresponds to complete kill. […]
(§4) The values reported are means.

[2] = system: KCHSC=Kochia scoparia (L.) Schrad. (Kochia); experiment: Postemergent herbicidal activity in the greenhouse; settings: 21-28 DAAA
Method: as §1, §2, §3, §4

[3] = system: MATCH=Matricaria recutita L. (wild chamomile); experiment: Postemergent herbicidal activity in the greenhouse; settings: 21-28 DAAA
Method: as §1, §2, §3, §4

[4] = system: MATIN=Matricaria inodora (scentless mayweed); experiment: Postemergent herbicidal activity in the greenhouse; settings: 21-28 DAAA
Method: as §1, §2, §3, §4

[5] = system: Res-PAPRH=Papaver rhoeas L. (common poppy) resistant to tribenuron and thifensulfuron (ALS) and 2,4-D; experiment: Postemergent herbicidal activity in the greenhouse; settings: 21-28 DAAA
Method: as §1, §2, §3, §4

[6] = system: SINAR=Sinapis arvensis L. (wild mustard); experiment: Postemergent herbicidal activity in the greenhouse; settings: 21-28 DAAA
Method: as §1, §2, §3, §4

[7] = system: PAPRH=Papaver rhoeas L. (common poppy); experiment: Postemergence field trial, Granon, Spain (Table 5)
Method: (§5) Field trials were established in Spain (Banares and Granon) and Germany (Bielefeld) to evaluate the efficacy of Compound 5, Compound 6, and Compound 7. Trials were designed as randomized complete blocks with three to four replicates. Trials were established in winter wheat with natural weed population with plot sizes of 2-2.5 meters (m) by 6-8 m (width×length). The crops were grown using normal cultural practices for fertilization, seeding, and maintenance to ensure good growth of the crop. All herbicide treatments were applied post-emergence with applications made to the crops at the BBCH 21 to 23 growth stage. Herbicides were applied with backpack or bicycle sprayers using air as a propellant. The sprayers utilized flat fan air-induction spray nozzles calibrated to deliver a uniform spray pattern that provided thorough coverage of the foliage using a 200 L/ha spray volume. All treatments were applied with methylated seed oil (MSO) at 1.25% v/v. Phytotoxicity to the weeds was assessed visually at several intervals after application as percent overall control, compared to an untreated control plot. In general, three to four replicates were assessed for each treatment. All treatment results are an average of three or four replicates. Compound 5, Compound 6, and Compound 7 were applied as emulsifiable concentrate (EC) formulations at 100 g ae/L EC, respectively.

[8] = system: VERHE=Veronica hederifolia (ivyleaved speedwell); experiment: Postemergence field trial, Granon, Spain (Table 5)
Method: as §5

[9] = system: FUMOF=Fumaria officinalis (common fumitory); experiment: Postemergence field trial, Banares, Spain
Method: as §5

[10] = system: PAPRH=Papaver rhoeas L. (common poppy); experiment: Postemergence field trial, Banares, Spain
Method: as §5

[11] = system: VERHE=Veronica hederifolia (ivyleaved speedwell); experiment: Postemergence field trial, Banares, Spain
Method: as §5

[12] = system: PAPRH=Papaver rhoeas L. (common poppy); experiment: Postemergence field trial, Granon, Spain (Table 7)
Method: as §5

[13] = system: SINAR=Sinapis arvensis L. (wild mustard); experiment: Postemergence field trial, Granon, Spain (Table 7)
Method: as §5

weeds = experiment: Herbicidal activity, overall conclusion from greenhouse and field results; settings: summary of Tables 1 to 8
Description: These new chemical herbicides offer a broader spectrum of weed control, higher activity against weeds, and provide a way to address the management of weeds that developed resistance with respect to herbicides traditionally used to control them.

SMILES | Percent (%) Visual Control CHEAL ([1]; 10 g ae/ha) [%] | Percent (%) Visual Control CHEAL ([1]; 20 g ae/ha) [%] | Percent (%) Visual Control KCHSC ([2]; 10 g ae/ha) [%] | Percent (%) Visual Control KCHSC ([2]; 20 g ae/ha) [%] | Percent (%) Visual Control MATCH ([3]; 10 g ae/ha) [%] | Percent (%) Visual Control MATCH ([3]; 20 g ae/ha) [%] | Percent (%) Visual Control MATIN ([4]; 10 g ae/ha) [%] | Percent (%) Visual Control MATIN ([4]; 20 g ae/ha) [%] | Percent (%) Visual Control Res-PAPRH ([5]; 10 g ae/ha) [%] | Percent (%) Visual Control Res-PAPRH ([5]; 20 g ae/ha) [%] | Percent (%) Visual Control SINAR ([6]; 10 g ae/ha) [%] | Percent (%) Visual Control SINAR ([6]; 20 g ae/ha) [%] | Percent (%) Visual Control PAPRH 84DAAA ([7]; 5 g ae/ha) [%] | Percent (%) Visual Control PAPRH 84DAAA ([7]; 10 g ae/ha) [%] | Percent (%) Visual Control PAPRH 84DAAA ([7]; 20 g ae/ha) [%] | Percent (%) Visual Control VERHE 34DAAA ([8]; 5 g ae/ha) [%] | Percent (%) Visual Control VERHE 34DAAA ([8]; 10 g ae/ha) [%] | Percent (%) Visual Control VERHE 34DAAA ([8]; 20 g ae/ha) [%] | Percent (%) Visual Control FUMOF 83DAAA ([9]; 5 g ae/ha) [%] | Percent (%) Visual Control FUMOF 83DAAA ([9]; 10 g ae/ha) [%] | further results
C#CCOC(=O)c1nc(-c2ccc3cc[nH]c3c2F)c(F)c(N)c1Cl [Compound 5, prop-2-yn-1-yl 4-amino-3-chloro-5-fluoro-6-(7-fluoro-1H-indol-6-yl)picolinate] | 97.5 | 100 | 76.7 | 82.7 | 54.2 | 68.9 | 100 | 100 | 87.5 | 100 | 89 | 96.7 | 66.7 | 78.3 | 90.7 | 60 | 77 | 85 | 41.7 | 65 | Percent (%) Visual Control FUMOF 83DAAA ([9]; 20 g ae/ha): 93.3%; Percent (%) Visual Control PAPRH 66DAAA ([10]; 5 g ae/ha): 57.7%; Percent (%) Visual Control PAPRH 66DAAA ([10]; 10 g ae/ha): 70%; Percent (%) Visual Control PAPRH 66DAAA ([10]; 20 g ae/ha): 90%; Percent (%) Visual Control VERHE 66DAAA ([11]; 5 g ae/ha): 60%; Percent (%) Visual Control VERHE 66DAAA ([11]; 10 g ae/ha): 77.7%; Percent (%) Visual Control VERHE 66DAAA ([11]; 20 g ae/ha): 91%; Percent (%) Visual Control PAPRH 68DAAA ([12]; 5 g ae/ha): 58.3%; Percent (%) Visual Control PAPRH 68DAAA ([12]; 10 g ae/ha): 72.7%; Percent (%) Visual Control PAPRH 68DAAA ([12]; 20 g ae/ha): 79.3%; Percent (%) Visual Control SINAR 48DAAA ([13]; 5 g ae/ha): 85%; Percent (%) Visual Control SINAR 48DAAA ([13]; 10 g ae/ha): 94.8%; Percent (%) Visual Control SINAR 48DAAA ([13]; 20 g ae/ha): 95%; herbicidal activity (overall conclusion) (weeds): superior herbicidal activity over Compound 7
N#CCOC(=O)c1nc(-c2ccc3cc[nH]c3c2F)c(F)c(N)c1Cl [Compound 6, cyanomethyl 4-amino-3-chloro-5-fluoro-6-(7-fluoro-1H-indol-6-yl)picolinate] | 100 | 100 | 73.3 | 84.3 | 57 | 64 | 98.3 | 100 | 95 | 100 | 90 | 96 | 68.7 | 81 | 90 | 55 | 77.7 | 86 | 41.7 | 69.3 | Percent (%) Visual Control FUMOF 83DAAA ([9]; 20 g ae/ha): 96%; Percent (%) Visual Control PAPRH 66DAAA ([10]; 5 g ae/ha): 60%; Percent (%) Visual Control PAPRH 66DAAA ([10]; 10 g ae/ha): 75%; Percent (%) Visual Control PAPRH 66DAAA ([10]; 20 g ae/ha): 91%; Percent (%) Visual Control VERHE 66DAAA ([11]; 5 g ae/ha): 60%; Percent (%) Visual Control VERHE 66DAAA ([11]; 10 g ae/ha): 81.7%; Percent (%) Visual Control VERHE 66DAAA ([11]; 20 g ae/ha): 91%; Percent (%) Visual Control PAPRH 68DAAA ([12]; 5 g ae/ha): 55%; Percent (%) Visual Control PAPRH 68DAAA ([12]; 10 g ae/ha): 69.3%; Percent (%) Visual Control PAPRH 68DAAA ([12]; 20 g ae/ha): 85.3%; Percent (%) Visual Control SINAR 48DAAA ([13]; 5 g ae/ha): 82.7%; Percent (%) Visual Control SINAR 48DAAA ([13]; 10 g ae/ha): 95%; Percent (%) Visual Control SINAR 48DAAA ([13]; 20 g ae/ha): 95.2%; herbicidal activity (overall conclusion) (weeds): superior herbicidal activity over Compound 7
Nc1c(F)c(-c2ccc3cc[nH]c3c2F)nc(C(=O)OCc2ccccc2)c1Cl [Compound 7, benzyl 4-amino-3-chloro-5-fluoro-6-(7-fluoro-1H-indol-6-yl)picolinate, reference compound] | 92.5 | 95 | 65 | 73.3 | 57 | 50.5 | 100 | 100 | 92.5 | 92.5 | 90 | 94 | 59.3 | 68.3 | 80.3 | 51.7 | 58.3 | 79.3 | 26.7 | 45 | Percent (%) Visual Control FUMOF 83DAAA ([9]; 20 g ae/ha): 58.3%; Percent (%) Visual Control PAPRH 66DAAA ([10]; 5 g ae/ha): 53.3%; Percent (%) Visual Control PAPRH 66DAAA ([10]; 10 g ae/ha): 62.7%; Percent (%) Visual Control PAPRH 66DAAA ([10]; 20 g ae/ha): 75%; Percent (%) Visual Control VERHE 66DAAA ([11]; 5 g ae/ha): 50%; Percent (%) Visual Control VERHE 66DAAA ([11]; 10 g ae/ha): 56%; Percent (%) Visual Control VERHE 66DAAA ([11]; 20 g ae/ha): 70%; Percent (%) Visual Control PAPRH 68DAAA ([12]; 5 g ae/ha): 45%; Percent (%) Visual Control PAPRH 68DAAA ([12]; 10 g ae/ha): 60%; Percent (%) Visual Control PAPRH 68DAAA ([12]; 20 g ae/ha): 74.3%; Percent (%) Visual Control SINAR 48DAAA ([13]; 5 g ae/ha): 73.3%; Percent (%) Visual Control SINAR 48DAAA ([13]; 10 g ae/ha): 80.7%; Percent (%) Visual Control SINAR 48DAAA ([13]; 20 g ae/ha): 89.3%
